The source of these data is ChEMBL document CHEMBL1201862, “PubChem BioAssay data set” (2004).

Test systems include A498; EKVX; HCT-15; HOP-62; LOX IMVI; MOLT-4; Malme-3M; NCI-H522; NCI/ADR-RES; OVCAR-4; OVCAR-5; PC-3; RPMI-8226; SF-268; SF-295; SK-MEL-2; SNB-19; SNB-75; TK-10; U-251.
What all share (test): DTP human tumour cell line panel, 48 h

Structures can show the parent of a compound that is named as a salt.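 Interpolation was linear, between the two tested concentrations surrounding the appropriate level; five concentrations were tested over 48 hours in 96-well plates. GI50 = concentration required for 50% inhibition of growth.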 The source made the active and inactive calls. No stated cut-off is given here; in the data, active = GI50 up to about 1.1 µM and inactive = higher.

On to `CC(C)=CCc1c(O)c(CC=C(C)C)c2oc3c(c(=O)c2c1O)C(C=C(C)C)Oc1cc(O)ccc1-3` (stereo unspecified), for which the GI50 in the assay on A498 was 16.2 µM (inactive); in the assay with EKVX, 3.88 µM (inactive); with HCT-15 it was 5.05 µM; with HOP-62, 12.5 µM (inactive); with LOX IMVI it was 5.15 µM (inactive); with MOLT-4, 3.84 µM (inactive). Besides, the GI50 in the assay on Malme-3M is 20.7 µM (inactive); in the assay on NCI-H522, 3.9 µM (inactive); in the assay with NCI/ADR-RES, 12.1 µM (inactive); in the assay on OVCAR-4, 7.14 µM (inactive); in the assay with OVCAR-5, 18.5 µM (inactive); in the assay with PC-3, 5.41 µM (inactive). Besides, the GI50 in the assay on RPMI-8226 is 3.76 µM (inactive); with SF-268 it was 6.07 µM (inactive); with SF-295, 5.97 µM (inactive); in the assay on SK-MEL-2 it was 2.92 µM (inactive); in the assay on SNB-19 it was 10.5 µM (inactive); in the assay with SNB-75, 4.07 µM (inactive). For the same compound, the GI50 in the assay on TK-10 is 4.17 µM (inactive); in the assay on U-251 it was 4.78 µM (inactive).

On to `CCN(CC)C1=Nc2ccccc2-n2c(C)cnc2C1`, for which the GI50 in the assay with A498 was > 100 µM (inactive); with EKVX, > 100 µM (inactive); in the assay on HCT-15, more than 100 µM; in the assay on LOX IMVI, > 100 µM (inactive); with MOLT-4, > 100 µM (inactive); in the assay with Malme-3M, > 100 µM (inactive). Besides, the GI50 was > 100 µM (inactive) in the assay with NCI-H522; > 100 µM (inactive) with NCI/ADR-RES; > 100 µM (inactive) with OVCAR-4; > 100 µM (inactive) in the assay with OVCAR-5; > 100 µM (inactive) in the assay with PC-3; 95.5 µM (inactive) in the assay with RPMI-8226. For the same compound, the GI50 with SF-268, with SF-295, in the assay on SK-MEL-2, in the assay with SNB-19, with SNB-75 and in the assay with TK-10 was > 100 µM (inactive) each time. For the same compound, in the assay with U-251, the GI50 is > 100 µM (inactive).

For `COc1cc(-c2oc3c(OC)c(O)c(OC)c(O)c3c(=O)c2OC)cc(OC)c1OC`, the GI50 is 51.2 µM (inactive) with A498; > 100 µM (inactive) with EKVX; 41.7 µM in the assay on HCT-15; 28.8 µM (inactive) in the assay on HOP-62; 35.4 µM (inactive) with LOX IMVI; 59.6 µM (inactive) in the assay with MOLT-4. In addition, the GI50 was > 100 µM (inactive) in the assay with Malme-3M; 17.4 µM (inactive) in the assay on NCI-H522; 62.5 µM (inactive) in the assay on NCI/ADR-RES; > 100 µM (inactive) in the assay with OVCAR-4; > 100 µM (inactive) with OVCAR-5; 65.8 µM (inactive) in the assay on PC-3. The GI50 in the assay with RPMI-8226 is 31.8 µM (inactive); in the assay on SF-268 it was 21 µM (inactive); with SF-295, > 100 µM (inactive); in the assay with SK-MEL-2, 77.1 µM (inactive); in the assay with SNB-19, > 100 µM (inactive); with SNB-75, 20.8 µM (inactive). Moreover, the GI50 in the assay with TK-10 was 55.5 µM (inactive); with U-251, 47.6 µM (inactive).

`COC(=O)c1sc2nc(Nc3ccccc3)/c(=N\c3ccccc3)sc2c1C`: the GI50 in the assay with A498 is 53.7 µM (inactive); in the assay on EKVX, 59.6 µM (inactive); in the assay on HCT-15, more than 100 µM; with HOP-62, 49.8 µM (inactive); in the assay on LOX IMVI, > 100 µM (inactive); in the assay on MOLT-4, > 100 µM (inactive). For the same compound, the GI50 in the assay on Malme-3M was > 100 µM (inactive); in the assay with NCI-H522 it was 30.3 µM (inactive); in the assay with NCI/ADR-RES, 80.5 µM (inactive); in the assay on OVCAR-4, 64.7 µM (inactive); with OVCAR-5, > 100 µM (inactive); in the assay on PC-3, > 100 µM (inactive). Besides, the GI50 with RPMI-8226 was > 100 µM (inactive); in the assay with SF-268 it was 57.3 µM (inactive); with SF-295, 51.4 µM (inactive); in the assay with SK-MEL-2, 48.6 µM (inactive); with SNB-19, 36.6 µM (inactive); in the assay with SNB-75, 25 µM (inactive). Moreover, the GI50 is 30.5 µM (inactive) in the assay with TK-10 and 48.6 µM (inactive) in the assay with U-251.

With `CC(=O)OCC12C(OC(C)=O)C[C@@H](C)C3(CC(c4ccoc4)OC3=O)C1CCC(OC(C)=O)C21CO1` (stereo partly specified), the GI50 with A498 is > 100 µM (inactive); in the assay on EKVX, > 100 µM (inactive); in the assay with HCT-15 it was more than 100 µM; in the assay on HOP-62, > 100 µM (inactive); in the assay with LOX IMVI, > 100 µM (inactive); with MOLT-4, > 100 µM (inactive). For the same compound, the GI50 with Malme-3M, with NCI-H522, in the assay with NCI/ADR-RES, in the assay with OVCAR-4, in the assay with OVCAR-5 and with PC-3 was > 100 µM (inactive) each time. Further, the GI50 in the assay with RPMI-8226, in the assay with SF-268, with SF-295, with SK-MEL-2, in the assay on SNB-19 and with SNB-75 was > 100 µM (inactive) in each case. Moreover, the GI50 in the assay with TK-10 and in the assay on U-251 was > 100 µM (inactive) each time.

Take `CC(C)(C)OC(=O)NCCCCCCC(=O)Cc1ccccc1`: the GI50 with A498 is > 100 µM (inactive); with EKVX it was > 100 µM (inactive); with HCT-15, more than 100 µM; in the assay on HOP-62 it was > 100 µM (inactive); with LOX IMVI, > 100 µM (inactive); in the assay on MOLT-4 it was 59 µM (inactive). The GI50 with Malme-3M, with NCI-H522, in the assay with NCI/ADR-RES, in the assay on OVCAR-4, in the assay with OVCAR-5 and with PC-3 was > 100 µM (inactive) throughout. Moreover, the GI50 in the assay on RPMI-8226, with SF-268, in the assay with SF-295, with SK-MEL-2, with SNB-19 and with SNB-75 was > 100 µM (inactive) throughout. Besides, the GI50 in the assay with TK-10 and in the assay with U-251 was > 100 µM (inactive) each time.

`CCc1ccc2c(c1)N(CC(C)CN(C)C)c1ccccc1S2` (stereo unspecified) [ETYMEMAZINE HYDROCHLORIDE]: the GI50 was 7.38 µM (inactive) with A498; 11.4 µM (inactive) in the assay with EKVX; 6.21 µM in the assay with HCT-15; 6.38 µM (inactive) with HOP-62; 3.54 µM (inactive) in the assay on LOX IMVI; 0.736 µM (active) in the assay with MOLT-4. Moreover, the GI50 in the assay with Malme-3M is 4.11 µM (inactive); in the assay with NCI-H522, 2.87 µM (inactive); in the assay with NCI/ADR-RES it was 5.22 µM (inactive); in the assay with OVCAR-4 it was 5.16 µM (inactive); with OVCAR-5 it was 4.98 µM (inactive); with PC-3, 4.93 µM (inactive). For the same compound, the GI50 with RPMI-8226 is 2.17 µM (inactive); in the assay on SF-268 it was 7.5 µM (inactive); with SF-295, 9.64 µM (inactive); with SK-MEL-2 it was 5.08 µM (inactive); with SNB-19, 10.6 µM (inactive); with SNB-75 it was 3 µM (inactive). Moreover, the GI50 in the assay on TK-10 was 4.81 µM (inactive); with U-251 it was 5.12 µM (inactive).

Take `CN1CCN(c2ncc3c(n2)sc2c(=O)n(-c4ccccc4)cnc23)CC1`: the GI50 with A498 was > 100 µM (inactive); in the assay on HCT-15, more than 100 µM; with HOP-62, > 100 µM (inactive); in the assay with LOX IMVI it was > 100 µM (inactive); in the assay on MOLT-4 it was > 100 µM (inactive); in the assay with Malme-3M, > 100 µM (inactive). Also, the GI50 in the assay on NCI-H522, in the assay with NCI/ADR-RES, in the assay with OVCAR-4, with OVCAR-5, in the assay with PC-3 and with RPMI-8226 was > 100 µM (inactive) throughout. The GI50 with SF-268, in the assay on SF-295, in the assay with SK-MEL-2, in the assay on SNB-19, in the assay with SNB-75 and in the assay on TK-10 was > 100 µM (inactive) each time. For the same compound, in the assay on U-251, the GI50 is > 100 µM (inactive).

In the case of `CC1C(c2ccccc2)OP(=O)(OC(C#N)c2ccccc2)N1C` (stereo unspecified), the GI50 in the assay with A498 is > 100 µM (inactive); with EKVX, > 100 µM (inactive); in the assay with HCT-15 it was more than 100 µM; with HOP-62 it was > 100 µM (inactive); in the assay with LOX IMVI, 79.6 µM (inactive); with MOLT-4 it was 37.8 µM (inactive). Also, the GI50 in the assay with Malme-3M was 89.3 µM (inactive); with NCI-H522 it was > 100 µM (inactive); in the assay with NCI/ADR-RES, > 100 µM (inactive); in the assay with OVCAR-5, > 100 µM (inactive); in the assay with PC-3 it was > 100 µM (inactive); in the assay with RPMI-8226 it was 33.5 µM (inactive). Moreover, the GI50 was > 100 µM (inactive) in the assay with SF-268; > 100 µM (inactive) in the assay with SF-295; 48.2 µM (inactive) in the assay with SK-MEL-2; > 100 µM (inactive) in the assay on SNB-19; > 100 µM (inactive) with SNB-75; > 100 µM (inactive) with TK-10. In addition, the GI50 in the assay on U-251 is 67.9 µM (inactive).

In the case of `CCOC(=O)C(CC#Cc1ccc(C#CCC(NC(C)=O)C(=O)OCC)cc1)NC(C)=O` (stereo unspecified), the GI50 in the assay with A498 is > 100 µM (inactive); in the assay on EKVX, > 100 µM (inactive); in the assay on HCT-15, more than 100 µM; in the assay with HOP-62, > 100 µM (inactive); with LOX IMVI, > 100 µM (inactive); in the assay on MOLT-4, > 100 µM (inactive). In addition, the GI50 in the assay on Malme-3M, in the assay on NCI-H522, in the assay on NCI/ADR-RES, in the assay with OVCAR-4, with OVCAR-5 and with PC-3 was > 100 µM (inactive) each time. For the same compound, the GI50 in the assay on RPMI-8226, in the assay on SF-268, with SF-295, in the assay with SK-MEL-2, in the assay on SNB-19 and in the assay on SNB-75 was > 100 µM (inactive) in each case. For the same compound, the GI50 in the assay with TK-10 was > 100 µM (inactive).

One may read the GI50 as the concentration giving 50% growth inhibition.
